Assay results: patent US10640514B2, “Polymorph of DPPIV inhibitor maleate and preparation method therefor” (SHANGHAI INSTITUTE OF MATERIA MEDICA, CHINESE ACADEMY OF …, priority 2016, dated 2020)

Key:
[1] = target: T1, DPP IV (Rattus norvegicus, UniProt P14740); test: Inhibition of DPP IV activity in normal rat plasma; format: in vivo
T1 construct: from tissue; host or cells: normal rat plasma

[2] = tested on: ob/ob mice; test: Fasting blood glucose of ob/ob mice, chronic administration; format: in vivo
[3] = Pharmacokinetics in dogs; format: in vivo
[4] = target: DPP IV (Homo sapiens, UniProt P27487); test: DPP IV inhibitory activity and selectivity in vitro; format: biochemical
[5] = target: T2, DPP IV (Mus musculus, UniProt P28843); test: Inhibition of DPP IV activity in normal mouse plasma; format: in vivo
T2 construct: from tissue; host or cells: normal mouse plasma

[6] = tested on: db/db mice; test: Fasting blood glucose of gene-deficient db/db mice, chronic administration; format: in vivo
[7] = tested on: ICR mice; test: Acute toxicity test of ICR mice; format: in vivo; conditions: 300 mg/kg administration group
[8] = Pharmacokinetics in rats; format: in vivo
[9] = tested on: normal ICR mice; test: Oral glucose tolerance in normal ICR mice; format: in vivo
[10] = Hygroscopicity analysis (DVS); format: physicochemical; conditions: range of conventional storage humidity, 25° C.
Method: Dynamic vapor absorption (DVS) test/water absorption test rapidly measures the increase and loss of the moisture in the sample caused by flow carrier gas with set relative humidity (RH), wherein the sample is placed on a digital microbalance with high sensitivity and high stability at a self-suspension state, and then the adsorption/desorption of water vapor is measured by measuring the increase/decrease of mass of the material, thereby determining the hygroscopicity of the sample.
In the present invention, the test parameters of the DVS are as follows: Instrument type: SMS DVS Intrinsic; Non-hydrate: 0 to 95%-0% RH; Temperature: 25° C.; Hydrate: 40 to 95%-0% RH; Temperature: 25° C.

[11] = versus sitagliptin and vildagliptin

Chain of DPP IV (Homo sapiens, UniProt P27487) (P27487 whole entry, species assumed): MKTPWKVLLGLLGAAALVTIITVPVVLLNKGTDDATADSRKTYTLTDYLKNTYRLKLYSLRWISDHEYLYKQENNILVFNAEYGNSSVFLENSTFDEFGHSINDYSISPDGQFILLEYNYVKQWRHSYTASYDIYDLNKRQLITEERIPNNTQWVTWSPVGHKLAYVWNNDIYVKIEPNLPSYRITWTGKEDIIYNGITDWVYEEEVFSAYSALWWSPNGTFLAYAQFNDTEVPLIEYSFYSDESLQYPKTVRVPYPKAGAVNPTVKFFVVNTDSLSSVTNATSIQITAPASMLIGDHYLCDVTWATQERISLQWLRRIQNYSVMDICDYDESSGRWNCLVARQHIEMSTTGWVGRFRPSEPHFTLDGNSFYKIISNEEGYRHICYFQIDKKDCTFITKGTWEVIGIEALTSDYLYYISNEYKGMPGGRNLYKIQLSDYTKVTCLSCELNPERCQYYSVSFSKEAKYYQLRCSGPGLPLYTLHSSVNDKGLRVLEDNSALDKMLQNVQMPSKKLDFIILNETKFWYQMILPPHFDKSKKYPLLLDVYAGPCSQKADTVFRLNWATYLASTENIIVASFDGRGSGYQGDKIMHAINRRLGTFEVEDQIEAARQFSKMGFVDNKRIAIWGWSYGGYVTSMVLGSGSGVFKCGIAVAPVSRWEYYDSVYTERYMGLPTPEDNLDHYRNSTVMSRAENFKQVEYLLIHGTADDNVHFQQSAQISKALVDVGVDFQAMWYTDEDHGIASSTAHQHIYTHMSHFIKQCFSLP
T2 sequence (P28843 37-760 limits assumed): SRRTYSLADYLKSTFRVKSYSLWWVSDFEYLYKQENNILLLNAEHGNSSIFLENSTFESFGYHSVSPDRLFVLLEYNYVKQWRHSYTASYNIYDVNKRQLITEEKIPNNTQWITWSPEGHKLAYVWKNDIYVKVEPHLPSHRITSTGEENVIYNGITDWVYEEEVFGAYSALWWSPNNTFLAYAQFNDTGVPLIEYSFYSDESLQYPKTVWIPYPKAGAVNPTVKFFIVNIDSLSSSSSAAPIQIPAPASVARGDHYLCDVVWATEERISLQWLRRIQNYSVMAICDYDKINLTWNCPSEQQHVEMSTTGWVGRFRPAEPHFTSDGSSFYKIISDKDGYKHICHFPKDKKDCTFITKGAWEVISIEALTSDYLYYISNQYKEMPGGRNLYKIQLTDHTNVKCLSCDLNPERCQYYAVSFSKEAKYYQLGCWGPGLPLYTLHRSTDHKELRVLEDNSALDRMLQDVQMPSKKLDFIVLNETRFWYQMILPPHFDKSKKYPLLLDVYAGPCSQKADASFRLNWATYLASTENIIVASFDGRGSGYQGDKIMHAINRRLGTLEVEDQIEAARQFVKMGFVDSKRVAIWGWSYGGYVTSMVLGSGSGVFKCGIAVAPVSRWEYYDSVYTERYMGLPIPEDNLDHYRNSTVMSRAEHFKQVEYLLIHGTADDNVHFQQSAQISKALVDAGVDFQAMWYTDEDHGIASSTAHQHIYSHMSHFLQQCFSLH
T1 sequence (P14740 37-767 limits assumed): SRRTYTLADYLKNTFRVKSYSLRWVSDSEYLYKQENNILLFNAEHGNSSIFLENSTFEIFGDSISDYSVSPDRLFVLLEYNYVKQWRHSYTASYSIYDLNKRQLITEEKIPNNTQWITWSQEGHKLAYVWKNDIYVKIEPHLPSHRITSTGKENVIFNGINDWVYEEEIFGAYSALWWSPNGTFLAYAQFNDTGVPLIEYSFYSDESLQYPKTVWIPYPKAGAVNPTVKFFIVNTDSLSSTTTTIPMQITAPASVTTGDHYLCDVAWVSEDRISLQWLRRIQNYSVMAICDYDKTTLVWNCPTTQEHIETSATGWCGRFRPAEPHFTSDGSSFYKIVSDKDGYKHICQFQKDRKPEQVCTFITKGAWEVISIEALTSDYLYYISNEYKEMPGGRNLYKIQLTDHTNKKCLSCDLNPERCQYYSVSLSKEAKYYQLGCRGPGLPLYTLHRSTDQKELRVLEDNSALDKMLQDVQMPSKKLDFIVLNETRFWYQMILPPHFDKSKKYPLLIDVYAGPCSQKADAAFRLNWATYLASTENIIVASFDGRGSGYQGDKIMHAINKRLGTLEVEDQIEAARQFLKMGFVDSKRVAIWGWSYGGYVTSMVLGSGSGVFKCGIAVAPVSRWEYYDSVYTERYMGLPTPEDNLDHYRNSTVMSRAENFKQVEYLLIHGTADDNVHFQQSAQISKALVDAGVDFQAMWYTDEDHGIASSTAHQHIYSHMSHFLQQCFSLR

Question: What does the source list for COC(=O)c1cc2nc(N3CCC[C@@H](N)C3)n(Cc3ccccc3C#N)c(=O)c2s1 [compound of formula I, (R)-methyl-2-(3-aminopiperidin-1-yl)-3-(2-cyanobenzyl)-4-carbonyl-3,4-dihydrothiophene[3,2-d]pyrimidine-6-carboxylic acid]?
Answer: inhibition of DPP IV activity in plasma [1]: effective in inhibiting DPP IV activity; plasma DPP IV inhibitory activity compared with alogliptin [1]: superior to the marketed drug alogliptin; fasting blood glucose [2]: effectively reduce fasting blood glucose; fasting blood glucose reduction compared with alogliptin [2]: superior to positive control drug alogliptin; AUC0-t compared with alogliptin [3]: superior to those of the marketed drug alogliptin; half-life compared with alogliptin [3]: superior to those of the marketed drug alogliptin; mode of DPP IV inhibition [4]: selective, reversible competitive inhibitor; DPP IV inhibitory activity ([4]; in vitro): nanomolar level; DPP IV inhibitory activity in vitro compared with marketed drugs [4, 11]: superior to the marketed drugs sitagliptin and vildagliptin; DPP IV selectivity in vitro compared with marketed drugs [4, 11]: superior to the marketed drugs sitagliptin and vildagliptin; inhibition of DPP IV activity in plasma [5]: effective in inhibiting DPP IV activity; plasma DPP IV inhibitory activity compared with alogliptin [5]: superior to the marketed drug alogliptin; fasting blood glucose [6]: reduce its fasting blood glucose; fasting blood glucose reduction compared with alogliptin [6]: comparable to positive control drug alogliptin; animal death in acute toxicity test [7]: no animal dies; AUC0-t compared with alogliptin [8]: superior to those of the marketed drug alogliptin; half-life compared with alogliptin [8]: superior to those of the marketed drug alogliptin; effect on oral glucose tolerance compared with alogliptin [9]: superior to that of alogliptin; onset dose for increase of oral glucose tolerance [9]: 0.1 mg/kg; oral glucose tolerance ([9]; dose-dependent manner): increase oral glucose tolerance

Question: Which “hygroscopicity, variation range (DVS)” value [10] does the source give for COC(=O)c1cc2nc(N3CCC[C@@H](N)C3)n(Cc3ccccc3C#N)c(=O)c2s1.O=C(O)/C=C\C(=O)O [crystal form A, (R)-methyl-2-(3-aminopiperidin-1-yl)-3-(2-cyanobenzyl)-4-carbonyl-3,4-dihydrothiophene[3,2-d]pyrimidine-6-carboxylic acid maleate] here?
Answer: The value was “less than 2.0%”.
